A short description of the data set: solvent given as SMILES.

Molecules are shown by their SMILES.

Turning to `O=C1Nc2ccccc2/C1=C/C(=O)c1ccc(Cl)cc1Cl`, the absorption maximum is listed as 336 nm (in C1CCCCC1); 337 nm (in C1COCCO1); 334 nm (in CC#N); 339 nm (in CC(C)(C)O); 339 nm (in CC(C)O); 334 nm (in CCCCCC). For the same molecule, the absorption maximum reads like this: (in CCCCO) 341 nm; (in CCOC(C)=O) 335 nm; (in CN(C)C=O) 340 nm; (in CO) 339 nm; (in ClCCl) 339 nm; (in O) 340 nm.

`N#CC1=c2cc3c4c(c2Oc2c1cc1c5c2CCCN5CCC1)CCC[N+]=4CCC3` displayed an absorption maximum (in CCO) of 682 nm.

Regarding `N#Cc1c(C#N)c2cc(Cl)c(Cl)cc2c2cc(Cl)c(Cl)cc12`, the absorption maximum (in ClC(Cl)Cl) amounted to 343 nm.

On to `CC(C)CN1C(=O)/C(=C/c2ccc([N+](=O)[O-])cc2)C=C1c1ccccc1`, for which the absorption maximum (in C1COCCO1) stood at 456 nm.

`COc1ccc(C2=C(c3ccc(F)cc3)C(c3ccccc3)=[N+]3C2=Nc2c(-c4ccc(OC)cc4)c(-c4ccc(F)cc4)c(-c4ccccc4)n2[B-]3(F)F)cc1`: the absorption maximum (in Cc1ccccc1) is given as 653 nm.

`COc1ccc(C2=C/C(=C\c3ccccc3)C(=O)O2)cc1OC` showed an absorption maximum (in C1COCCO1) of 406 nm.

In the case of `CCCCCCCCOC(=O)c1cc2ccc3ccccc3c2c(C#N)c1N`, for the setting “in Cc1ccccc1”, the absorption maximum was 435 nm.

As to `CCCCCCCN1C(=CC2=C([O-])C(=CC3=[N+](CCCCCCC)c4ccccc4C3(C)C)C2=C(C#N)C#N)C(C)(C)c2ccccc21`, the absorption maximum came to 689 nm (in C1COCCO1), 673 nm (in CCO), 681 nm (in CN(C)C=O) and 685 nm (in ClC(Cl)Cl).

Turning to `O=[N+]([O-])c1ccc(/C=C/c2c[nH]c3ccccc23)cc1`, the absorption maximum was determined as 410 nm (in CC#N), 393 nm (in CCCCCCC), 413 nm (in CO) and 418 nm (in O).

Take `Cc1cc(C)c(B(c2ccc3c(c2)c2cc(B(c4c(C)cc(C)cc4C)c4c(C)cc(C)cc4C)ccc2n3-c2ccc(C(=C(c3ccccc3)c3ccccc3)c3ccccc3)cc2)c2c(C)cc(C)cc2C)c(C)c1`: the absorption maximum (in C1CCOC1) was determined as 358 nm.

Turning to `N#Cc1c(C#N)c2cc(Br)ccc2c2ccc(Br)cc12`, the absorption maximum (in ClC(Cl)Cl) amounted to 350 nm.

Regarding `COc1ccc(-c2nc(-c3ccc(OC)cc3)c(-c3ccc(OC)cc3)[nH]2)cc1`, the absorption maximum (in CO) amounted to 295 nm.

Turning to `CCCCN(CCCC)c1ccc(C#Cc2cc(C#Cc3ccc(N(CCCC)CCCC)cc3)c(C#Cc3ccc(C#N)cc3)cc2C#Cc2ccc(C#N)cc2)cc1`, the absorption maximum (in ClCCl) was determined as 435 nm.

`CCOC(=O)c1ccc(C2=Cc3cc4ccccc4cc3P2(=O)c2ccccc2)cc1` (stereo not given): the absorption maximum (in ClCCl) is on record as 390 nm.

Molecule `CC1=CC(c2ccc3ccccc3c2)=[O+][B-]2(OC(=O)C(=O)O2)O1` showed an absorption maximum (in CC#N) of 400 nm and an absorption maximum (in ClC(Cl)(Cl)Cl) of 400 nm.

Molecule `CCn1c(-c2ccc(-c3ccc4c(c3)C3(c5ccccc5-c5ccccc53)c3ccccc3-4)cc2)c(-c2ccc3ccccc3c2)c(-c2ccc3ccccc3c2)c1-c1ccc(-c2ccc3c(c2)C2(c4ccccc4-c4ccccc42)c2ccccc2-3)cc1` had an absorption maximum (in CCOC(C)=O) of 326 nm.

`CC1(C)OB(c2cc3ccc4cc(B5OC(C)(C)C(C)(C)O5)cc5ccc(c2)c3c45)OC1(C)C` displayed an absorption maximum (in Cc1ccccc1) of 398 nm.

`COc1ccc(-c2cc3c(ccc4sc5ccc6sccc6c5c43)s2)cc1` gave an absorption maximum (in ClCCl) of 357 nm.

As for `O=C1c2ccccc2-c2c(-c3ccccc3O)[nH]c(=O)n21`, the absorption maximum is, setting by setting: (in CC#N) 393 nm; (in CO) 396 nm; (in ClCCl) 394 nm.

As for `Cc1ccc(/C=N/c2cc(C(C)C)c(O)cc2C)cc1`, the absorption maximum reads like this: (in C1CCCCC1) 341 nm; (in C1CCOC1) 348 nm; (in C1COCCO1) 344 nm; (in CC#N) 337 nm; (in CC(C)(C)O) 346 nm; (in CC(C)O) 345 nm. Also, the absorption maximum runs as follows: (in CCCCCC) 340 nm; (in CCCCO) 345 nm; (in CCO) 344 nm; (in CCOC(C)=O) 344 nm; (in CN(C)C=O) 347 nm; (in CO) 344 nm. This molecule came in with an absorption maximum (in CS(C)=O) of 348 nm; an absorption maximum (in ClC(Cl)Cl) of 346 nm; an absorption maximum (in ClCCl) of 341 nm; an absorption maximum (in O) of 346 nm; an absorption maximum (in OCCO) of 344 nm.

As for `CCC(C)(C)c1ccc(-c2ccc(-c3ccc(C(C)(C)CC)cc3)cc2)cc1`, the absorption maximum (in C1COCCO1) is reported as 289 nm.

On to `CCCCCCCN1C(=CC2=C([O-])C(=Cc3sc4ccccc4[n+]3CCCCCCC)C2=C(C#N)C#N)Sc2ccccc21`, for which the absorption maximum is recorded as 709 nm (in C1COCCO1), 696 nm (in CCO), 696 nm (in CN(C)C=O) and 704 nm (in ClC(Cl)Cl).

With `COc1ccc(C#CC2=C3CCc4ccccc4C3=[O+][B-](F)(F)O2)cc1`, the absorption maximum (in ClCCl) came to 446 nm.

Where the note is “in C1CCOC1”, `O=C(c1ccc(N2c3ccccc3Sc3ccccc32)cc1)c1ccc2sc3ccccc3c2c1` showed an absorption maximum of 330 nm.

Take `Cc1cc(C)c(C2=C3C=C(/C=C/C(=O)OC(C)(C)C)C=[N+]3[B-](F)(F)n3c2ccc3N2CCOCC2)c(C)c1`: the absorption maximum is, setting by setting: (in CC#N) 480 nm; (in CCCCCC) 532 nm; (in CN(C)C=O) 485 nm; (in CO) 483 nm; (in Cc1ccccc1) 525 nm; (in ClCCl) 497 nm.

Take `CN(C)c1ccc(C#Cc2ccc3ccc4c(C#Cc5ccc(N(C)C)cc5)ccc5ccc2c3c54)cc1`: the absorption maximum is recorded as 430 nm (in C1COCCO1); 447 nm (in CC(C)=O); 439 nm (in CCCCCC); 430 nm (in CCCCCCO); 431 nm (in CCO); 431 nm (in CCOC(C)=O). For the same molecule, the absorption maximum was 436 nm (in CO), 433 nm (in Cc1ccccc1) and 439 nm (in ClCCl).

In the case of `COc1nc(Cl)nc(Nc2ccc3cc4ccccc4cc3c2)n1`, the absorption maximum is listed as 394 nm (in C1COCCO1), 397 nm (in CC#N), 396 nm (in CCCCOCCCC) and 398 nm (in CCOC(C)=O).

As to `CCCCCCC(CCCCCC)N1C(=O)c2cccc3c(-c4ccc(N(C)C)cc4)ccc(c23)C1=O`, the absorption maximum turned out to be 401.2 nm (in CCCCCC); 403.8 nm (in CCCCCCCCCCCCCC); 428.6 nm (in CCCCCCCCCCCO); 430.2 nm (in CCCCO); 433.8 nm (in CN(C)C=O); 418.2 nm (in Cc1ccccc1). Where the note is “in ClC(Cl)Cl”, this molecule yielded an absorption maximum of 426.2 nm.

Where the note is “in C1CCOC1”, `N#Cc1c(N2CCCCC2)cc(-c2cccc3ccccc23)c2c1-c1ccccc1C2=O` gave an absorption maximum of 390 nm.
